Experimental data reported in patent US9668479B2, “Modulating germination of Paenibacillus larvae” (THE BOARD OF REGENTS OF THE NEVADA SYSTEM OF HIGHER …, priority 2013, dated 2017).

How the values were obtained:
[1] = test system: honey bee larvae contacted with P. larvae spores; test: Survival of honey bee larvae fed diet with indole analogs and P. larvae spores; format: in vivo
Experimental: First instar honey bee larvae were obtained from two colonies headed by naturally mated queens (Honey Bee Genetics, Vacaville Calif.). Queens were trapped on empty frames within a cage constructed with queen excluder. Worker bees can fit through the excluder but the queen cannot exit the cage. The frame was placed within the brood chamber to stimulate egg laying by the queen overnight. Eggs were incubated in the hive for 4 days to allow newly hatched larvae to be fed by nurse bees. First instar honey bee larvae were brought into the laboratory and stored in a 35° C. 85% relative humidity chamber before grafting.
Sterile six well plates with a well volume of 17.0 ml were filled with 2.5 ml of pre-warmed artificial worker jelly. Honey bee larvae were transferred into each well using the thin tongue made of flexible plastic from a Chinese grafting tool. The plastic grafting tool was decontaminated with 70% ethanol throughout usage. Grafting was performed in the sterile environment of a honey bee laboratory, and honey bee larvae were then transferred to a bacterial spore laboratory for control and spore exposure treatments.
Artificial worker jelly was prepared using a lyophilized royal jelly, D-glucose, D-fructose, yeast extract, and autoclaved double distilled water. Ingredients minus lyophilized royal jelly were dissolved in autoclaved double distilled water. Lyophilized royal jelly was added to this sugar-yeast extract solution and mixed thoroughly with a vortex mixer. Artificial diet was prepared an hour prior to use for larval rearing. To reduce the development of worker-queen hybrids because of nutrition, the composition and amounts of artificial worker jelly were controlled in every larval stage.
Honey bee larvae were incubated in an air tight plastic container placed inside an incubator. The desired relative humidity (95%) and temperature (35° C.) was verified with an iButton data logger (Maxim Integrated; San Jose, Calif.). The appropriate relative humidity was obtained by placing a solution of 20% glycerol by weight. The plastic containers were was decontaminated throughout usage with detergent, 70% ethanol, and treated with an ultraviolet lamp overnight.
Feeding of diets was performed daily in different amounts according to Table 2. The amount of diet consumed by larvae was assumed based on published literature. A micropipette was used to place a food drop next to the mouth of the larvae. Drowning was avoided by maintaining the appropriate humidity and water content of diet. Forty first and second instar larvae were placed into one well of a six well plate. Third instar larvae were transferred individually to 48 well plates filled with fresh food.
Larval survival was determined daily by observing signs of respiration, disease symptoms, and other abnormalities with a stereo microscope. The number of dead larvae was recorded, and surviving larvae were fed fresh food. The start of pupation was indicated by the appearance of uric acid crystals and light yellow excretions in the remaining food.
The larval survival data was analyzed using the LogRank test in SigmaPlot.

P. larvae cells = test: Growth of P. larvae cells in medium containing 5-chloroindole; format: cell-based, Paenibacillus larvae; conditions: 1, 1.5 and 2 mM; all time points (6, 12, 18, 24 hours); p<0.05
Experimental: FIGS. 6A-6D are graphs plotting the inhibition activity of 5-chloroindole on P. larvae cells. P. larvae cells were grown in medium containing different concentrations of 5-chloroindole, and cellular growth was monitored over a 24 hour period. Graphs are shown for 6 hours (FIG. 6A), 12 hours (FIG. 6B), 18 hours (FIG. 6C), and 24 hours (FIG. 6D). Asterisks denote significant differences from the growth of medium control (Analysis of Variance, Log-rank test, p<0.05).
5-Chloroindole was then tested in vitro, using P. larvae cells or spores. P. larvae cells were grown in medium containing different concentrations of DMSO, complex medium (MYPGP), or 0.5 to 2 mM 5-chloroindole, and cellular growth was monitored over a 24 hour period.

P. larvae spores [2] = test: Inhibition of P. larvae spore germination, IC50 titration of indole analogs (Example 2); format: cell-based, Paenibacillus larvae subsp. pulvifaciens strain ATCC 49843; conditions: Paenibacillus larvae; Table 2; saturating uric acid/L-tyrosine concentrations; read-out: IC50
Experimental: After a 15 minute incubation, the spores were treated with 3 mM L-tyrosine-3 mM uric acid. The germination rate was set to 100% for P. larvae spores germinated in the absence of inhibitor. Germination rates for other conditions were divided by the uninhibited maximum germination rate obtained with 3 mM L-tyrosine-3 mM uric acid, and are reported as percent germination. Percent germination was plotted against the inhibitor concentrations.

P. larvae spores [3] = test: Growth from P. larvae spores in medium containing 5-chloroindole; format: cell-based, Paenibacillus larvae
Experimental: FIGS. 7A-7D are graphs plotting the inhibition activity of 5-chloroindole on P. larvae spores. P. larvae spores were grown in medium containing different concentrations of 5-chloroindole. Growth was monitored over a 24 hour period; plots are shown for 6 hours (FIG. 7A), 12 hours (FIG. 7B), 18 hours (FIG. 7C), and 24 hours (FIG. 7D). Asterisks denote significant differences from the growth of medium control (Analysis of Variance, Log-rank test, p<0.05).
P. larvae spores were grown in medium containing different concentrations of DMSO, complex medium (MYPGP), or 0.5 to 2 mM 5-chloroindole, and cellular growth was monitored over a 24 hour period.

For `Clc1ccc2[nH]ccc2c1` [5-chloroindole], the “concentration dependence of increase in larval survival” value ([1]; 0.125 mM to 1 mM in larval diet (wj) plus P. larvae spores, p<0.001) was “directly correlated to its concentration”, the “ranking of effect on larval survival among analogs” value ([1]; 0.5 mM in larval diet (wj) plus P. larvae spores) was “greatest effect” and the “survival of honey bee larvae vs P. larvae spores alone” value ([1]; 0.5 mM in larval diet (wj) plus P. larvae spores, 7-day development, p<0.002) was “increased survival”. For the same compound, the “inhibition of P. larvae cell growth vs medium control” value (P. larvae cells) was “significantly inhibited”, the IC50 (P. larvae spores [2]) was 30 ± 10 µM and the “effect on growth from P. larvae spores vs medium control, 6 hours” value (P. larvae spores [3]; 0.5 to 2 mM, 6 hours) was “no significant effect”. The “effect on growth from P. larvae spores vs medium control, 18 and 24 hours” value (P. larvae spores [3]; all concentrations (0.5 to 2 mM), 18 and 24 hours, p<0.05) was “significantly inhibited”.
